“Also recorded” adds a separate entry of the source. Where two headings read alike, the source gives them in different places.
Key:
[1] = Lethal dose 50 (LD50) in the mouse after a single oral administration; format: in vivo; conditions: in vivo, single administration, 14th day mortality
Method: (§1) Method for studying the lethal dose 50(LD50) in the mouse after a single administration.
(§2) Groups of 10 Swiss albine, female, adult (20-22 g of body weight) mice, fasting from the evening preceding the test, are treated orally with various doses of the test drug suspended in hydroxyethylcellulose (0.50% weight/volume).
(§3) Thereafter, the animals are fed again.
(§4) LD50 is calculated by the method of Litchfield J. T. and Wilcoxon F. (J. Pharmacol. 96, 99-113, 1949) by utilizing the mortality data as obtained on the 14th day after the test drug administration.

mouse [2] = assay: as above; format: in vivo; conditions: in comparison with acetylsalicylic acid
Method: as §1, §2, §3, §4

bronchial secretion = assay: Bronchosecretagogue activity: quantitative evaluation of the bronchial secretion of rabbit (Scuri et al.); format: in vivo, rabbit (adult male brown); conditions: oral
Text: Method of quantitative evaluation of the bronchial secretion of rabbit according to Scuri R. et al. Boll. Chim. Farm. […] Adult male brown rabbits (2.8-3.5 kg of body weight) are employed, to which a T shaped tracheal cannula, by surgical operation, as described in the mentioned bibliographic reference, is applied. To the cannula, a container for periodical collection of the bronchial secretion is applied. The study of mucoproduction, started at the fourth day after the operation, is divided into two periods, each of 4 hours, for collecting and measuring the mucus secreted. The action of the drug under examination, is tested by administering the same orally at the begining of the second mucus collection period and evaluating the percent increase of mucus production (as measured gravimetrically in the second period in comparison with the first period).

[3] = system: carrageenin induced oedema; assay: Anti-oedemigenous activity: carrageenin induced oedema (Winter et al.); format: in vivo, rat (female albine Wistar); conditions: for ED40: 3 h, read-out: Anti-oedemigenous activity ED40
Method: Method of carrageenin induced oedema according to Winter C. A. et al--Proc. Soc. […] Female albine Wistar rats (120-160 g of body weight) are utilized. The drug under test is administered orally one hour before injection into the right hind paw of a carrageenin water suspension (1% volume injected ml 0.05).

pleural exudate = assay: Anti-exudative activity: quantitative evaluation of the pleural exudate of a rat (carrageenin pleuritis); format: in vivo, rat (female albine Wistar); conditions: for ED50: 6 h, read-out: Anti-exudative activity ED50
Method: Method of the quantitative evaluation of the pleural exudate of a rat according to Vinegar E. et al.-Proc. Soc. […] Female albine Wistar rats (average weight 160 g), fasting from the evening preceding the test, are used. The experimental pleuritis is induced by injecting into the pleural cavity, under ethereal anesthesia, 0.15 ml of a 1% carrageenin solution (Prodotti Gianni-Milano). The test drug is administered orally, half an hour before the carrageenin. Six hours after the carrageenin injection, the animals are sacrificed and volumetric measurement of the pleural exudate, as withdrawn by a syringe, is performed.

[4] = system: phenylquinone abdominal contractions; assay: Analgesic activity: phenylquinone method (abdominal contractions); format: in vivo, mouse (female Swiss albine); conditions: for ED50: read-out: Analgesic activity ED50; for analgesic activity (in words): oral, comparison with acetylsalicylic acid
Method: Female Swiss albine mice (20-25 g), fasting for 2 hours, are utilized.
The test drug is administered orally 30 minutes before the endoperitoneal injection of phenylquinone (0.08 mg/mouse).
The characteristic abdominal contractions are counted individually during a 20 minutes period.

yeast induced pyrexia = assay: Antipyretic activity: yeast induced pyrexia in the rat; format: in vivo, rat (female Wistar albine); conditions: for ED50: oral simultaneously with yeast, Temperature Index
Method: Method of yeast induced pyrexia in the rat. Female Wistar albine rats, weighing 100-140 g, are utilized. The animals having a basal rectal temperature from 36° to 37° C. are selected. The testing substances are administered orally simultaneously with the pyretic agent (dry brewers' yeast suspended in water at the 20% concentration, administered volume 15 ml/kg, subcutaneously) to groups of 5 animals per dose. After 4, 5, 6, 7 and 24 hours from the treatment, the rectal temperature of the animals is recorded by an Ellab RM6 probe, connected to an Ellab-mod. TE-3 thermometer. The activity of the drugs is evaluated by utilizing a Temperature Index, which is given by the algebraic sum of the differences in the rectal temperature between the measure values at different times and the basal value;

[5] = Gastric tolerability: gastric ulcerogenesys by repeated drug administrations; format: in vivo, rat (female Wistar albine); conditions: rat, in vivo, po
Method: (§5) Method of gastric ulcerogenesys by repeated drug administrations.
(§6) Fed female Wistar albine rats (140-160 g of initial body weight) are used.
(§7) The drug under test is administered orally, daily, for five days. At the end of the test the stomach of the rats is withdrawn, it is dissected along the lesser curvature, washed and observed in order to disclose the presence of either gastric lesions or manifest submucosa hemorrhages.
(§8) The "ulcerogenic dose 50" (UD50) is defined as the daily dose able to induce lesions or hemorrhages in 50% of the animals treated.

stomach [6] = assay: as above; format: in vivo, rat (female Wistar albine); conditions: rat
Method: as §5, §6, §7, §8

mouse [7] = conditions: literature datum, Hart E R J. Pharm. Exp. Ther. 89 205, 1947; 20160 min; cited from earlier work
stomach [8] = conditions: Arrigono-Martelli, Meth. Find. Exp. Clin. Pharmacol. 1, 157, 1979; 7200 min; cited from earlier work

Question: For `CC1=CCC(CC(=O)Oc2ccccc2C(=O)O)C1(C)C` (single isomer, unassigned) [CO/1473, 2-(2,2,3-trimethyl-3-cyclopentene-1-acetoxy)benzoic acid], which LD50 at 336 h [1] is on record?
Answer: The LD50 at 336 h was 913 mg/kg.

Question: And the “acute toxicity (in words)” value (mouse [2])?
Answer: The value was “low acute toxicity”.

Question: And the ED50 (bronchial secretion; Oryctolagus cuniculus, 4 h, percent increase of mucus production)?
Answer: The ED50 was 60 mg/kg.

Question: What about the “bronchosecretagogue activity (in words)” value (bronchial secretion) of the same molecule?
Answer: The value was “has bronchosecretagogue activity in the rabbit”.

Question: What about the ED40 ([3]; rat, oral one hour before carrageenin, paw volume after three hours) of the same molecule?
Answer: Its ED40 is 400 mg/kg.

Question: What about the “anti-oedemigenous activity in comparison with acetylsalicylic acid (in words)” value ([3]; rat, oral, first test of Table 3) of the same molecule?
Answer: The value was “superior in the first test”.

Question: And the ED50 (pleural exudate; rat, oral half an hour before carrageenin, exudate volume after six hours)?
Answer: The ED50 was 320 mg/kg.

Question: What about the “anti-exudative activity in comparison with acetylsalicylic acid (in words)” value (pleural exudate; rat, oral, second test of Table 3) of the same molecule?
Answer: Its value is “slightly inferior in the second”.

Question: And the ED50 ([4]; mouse, oral 30 minutes before phenylquinone)?
Answer: The ED50 was 52 mg/kg.

Question: And the “analgesic activity (in words)” value ([4]; mouse)?
Answer: The value was “slightly more active than acetylsalicylic acid”.

Question: What about the ED50 (yeast induced pyrexia) of the same molecule?
Answer: Its ED50 is 400 mg/kg.

Question: And the “antipyretic activity (in words)” value (yeast induced pyrexia; oral, comparison with acetylsalicylic acid)?
Answer: The value was “interesting antipyretic activity in the rat, though lower than the one of acetylsalicylic acid”.

Question: And the NOAEL at 120 h [5]?
Answer: Its NOAEL at 120 h is 800 mg/kg.

Question: What about the “gastro-damaging effect (in words)” value (stomach [6]; up to the maximum dose of 800 mg/kg os/die for 5 days, listed as compound of the invention, 800 mg/kg) of the same molecule?
Answer: The value was “does not show any gastro-damaging effect; also recorded: very good gastric tolerability”.

Question: With `CC(=O)Oc1ccccc1C(=O)O` [acetylsalicylic acid, reference compound] as the molecule, how does the “Bronchosecretagogue activity ED50” value (bronchial secretion; percent increase of mucus production) read?
Answer: Its value is “inactive”.

Question: What about the ED40 ([3]; Rattus norvegicus, po) of the same molecule?
Answer: Its ED40 is 400 mg/kg.

Question: And the ED50 (pleural exudate; Rattus norvegicus, po)?
Answer: The ED50 was 215 mg/kg.

Question: What about the ED50 ([4]; Mus musculus, po) of the same molecule?
Answer: Its ED50 is 70 mg/kg.

Question: And the “analgesic activity (in words)” value ([4]; mouse)?
Answer: Its value is “good analgesic activity in the mouse”.

Question: What about the ED50 (yeast induced pyrexia) of the same molecule?
Answer: Its ED50 is 157 mg/kg.

Question: And the “gastro-damaging dose, times lower than that of CO/1473” value (stomach [6]; oral, acetylsalicylic acid dose versus CO/1473 dose)?
Answer: The value was 16 times lower.

Question: What about the LD50 (mouse [7]) of the same molecule?
Answer: The LD50 was 1100 mg/kg os.

Question: And the “UD50 (ulcerogenic dose 50)” value (stomach [8])?
Answer: Its value is 48 mg/kg os.
